Assay: Study HDP-CDV-201: safety and tolerability (adverse events, laboratory abnormalities, discontinuations)
Assay type: in vivo, human (adult allogeneic HSCT recipients)
Experimental: Clinical Studies of HDP-CDV were performed and described in detail in the following Examples. For example, HDP-CDV-201 is a placebo-controlled, dose-escalating trial in HSCT CMV (R+) recipients, evaluating the ability of HDP-CDV to prevent or control CMV infection was carried out. Five cohorts were established in which participants or subjects received either placebo or the HDP-CDV orally, in doses ranging from 40 mg weekly (QW) to 200 mg twice weekly (BIW). Subjects who were post-HSCT were enrolled at the time of engraftment and randomized to HDP-CDV or placebo (3 to 1 ratio) and received blinded therapy until approximately 100 day post-transplantation. HDP-CDV doses were 40 mg QW, 100 mg QW, 200 mg QW, 200 mg BIW and 100 mg BIW. Escalation to the next dose was decided by the data monitoring committee after review of the safety data from the previous Cohort. Subjects who developed CMV disease or CMV infection requiring pre-emptive therapy with local standard of care were discontinued from blinded therapy and followed for 4 weeks. Subjects who completed treatment with blinded therapy were followed for 8 weeks post-therapy.
Data from Study HDP-CDV-201 also provided characterization of the safety and tolerability profile of HDP-CDV when administered for the prevention or control of CMV infection in high risk (R^+) post-HSCT adult subjects.
The Safety population (SAFETY) included all randomized subjects who took at least one dose of study treatment. This population was used to summarize safety outcomes based on the treatment actually received, in cases where a subject was treated contrary to the randomization schedule.
The safety and tolerability profile of HDP-CDV, including subject demographics and Baseline characteristics; the AE profile; and laboratory abnormalities of interest were analyzed in the cohorts followed in this investigation.
Subjects completing the treatment period received a full course of study medication; those completing the entire study attended visits through 8 weeks of follow up. Subjects who discontinued treatment may have done so for protocol specified reasons (e.g. development of clinically significant CMV infection requiring preemptive treatment with excluded anti-CMV medications) or for other reasons (e.g., withdrawal, adverse events, loss to follow-up). The disposition of subjects in Study HDP-CDV-201 during the double-blind, placebo-controlled treatment period (through Week 11) is listed by dosing Cohort in TABLE 23.
Adverse events were examined by severity to ensure that all safety signals were identified in this study population. Because of the frequency of events in HSCT recipients, particular attention was given to evaluation of Grade 3 […], 4 (severe), and 5 (fatal) adverse events.
Only those preferred terms for which at least one Grade 3 or higher event was experienced in any treatment group are listed. Cytomegalovirus-related AEs are excluded from this analysis.
HDP-CDV is a lipid conjugate of CDV. Because CDV is known to have adverse effects on renal function and bone marrow, decreased GFR and persistent neutropenia were identified as AEs of special interest. Key renal and hematological (TABLE 30) laboratory parameters were measured and listed below by Study HDP-CDV-201 treatment groups. TABLE 30 includes abnormal levels of serum creatinine, neutrophils, platelets, WBCs, and hemoglobin and includes data at Screening and during the treatment period.
A common metric for unit based dosing of medications is by weight (mg/kg). When the distribution of weights was examined for all subjects participating in the study, the median was 78 kg and the lower 25th percentile weight was approximately 65 kg, which translates to a cut-off of ˜3 mg/kg for a 200 mg total weekly dose. Based upon this approach, a cut-off of 3 mg/kg was used to assess the frequency of diarrhea and associated GI AEs reported for the subjects in Cohorts 3 or 4a (TABLE 40).

CCCCCCCCCCCCCCCCOCCCOP(=O)(O)COC(CO)Cn1ccc(N)nc1=O (stereo not drawn) [HDP-CDV]
Abnormal ALT >3-5x ULN, Screening, subjects (Cohort 3, >3.0 mg/kg/wk): 0 | Abnormal ALT >5-10x ULN, Any Time Between Week 2 and Week 10, subjects (Cohort 3, >3.0 mg/kg/wk): 0 | Abnormal ALT >5-10x ULN, Screening, subjects (Cohort 3, >3.0 mg/kg/wk): 0 | Abnormal ALT >10-20x ULN, Any Time Between Week 2 and Week 10, subjects (Cohort 3, >3.0 mg/kg/wk): 0 | Abnormal ALT >10-20x ULN, Screening, subjects (Cohort 3, >3.0 mg/kg/wk): 0 | Abnormal ALT >20x ULN, Any Time Between Week 2 and Week 10, subjects (Cohort 3, >3.0 mg/kg/wk): 0 | Abnormal ALT >20x ULN, Screening, subjects (Cohort 3, >3.0 mg/kg/wk): 0 | Abnormal ALT >3-5x ULN, Any Time Between Week 2 and Week 10, subjects (Cohort 3, ≦3.0 mg/kg/wk): 3 (12.5%) | Abnormal ALT >3-5x ULN, Screening, subjects (Cohort 3, ≦3.0 mg/kg/wk): 0 | Abnormal ALT >5-10x ULN, Any Time Between Week 2 and Week 10, subjects (Cohort 3, ≦3.0 mg/kg/wk): 5 (20.8%) | Abnormal ALT >5-10x ULN, Screening, subjects (Cohort 3, ≦3.0 mg/kg/wk): 0 | Abnormal ALT >10-20x ULN, Any Time Between Week 2 and Week 10, subjects (Cohort 3, ≦3.0 mg/kg/wk): 0 | Abnormal ALT >10-20x ULN, Screening, subjects (Cohort 3, ≦3.0 mg/kg/wk): 0 | Abnormal ALT >20x ULN, Any Time Between Week 2 and Week 10, subjects (Cohort 3, ≦3.0 mg/kg/wk): 1 (4.2%) | Abnormal ALT >20x ULN, Screening, subjects (Cohort 3, ≦3.0 mg/kg/wk): 0 | Grade of hepatobiliary AE hepatomegaly, subject 4019 (Cohort 4): 1 | Grade of hepatobiliary AE hyperbilirubenemia, subject 4001 (Cohort 4): 2 | Grade of hepatobiliary AE hyperbilirubinemia, subject 4014 (Cohort 4): 4 | Grade of hepatobiliary AE hyperbilirubinemia, subject 4041 (Cohort 4): 1 | Grade of hepatobiliary AE jaundice, subject 4002 (Cohort 4): 1 | Grade of hepatobiliary AE worsening hyperbilirubinemia, subject 4004 (Cohort 4): 1 | Outcome of hepatobiliary AE hepatomegaly, subject 4019 (Cohort 4): recovered/resolved | Outcome of hepatobiliary AE hyperbilirubenemia, subject 4001 (Cohort 4): not recovered/not | Outcome of hepatobiliary AE hyperbilirubinemia, subject 4014 (Cohort 4): not recovered/not | Outcome of hepatobiliary AE hyperbilirubinemia, subject 4041 (Cohort 4): recovered/resolved | Outcome of hepatobiliary AE jaundice, subject 4002 (Cohort 4): not recovered/not | Outcome of hepatobiliary AE worsening hyperbilirubinemia, subject 4004 (Cohort 4): recovered/resolved | Relationship of hepatobiliary AE hepatomegaly, subject 4019 (Cohort 4): not related | Relationship of hepatobiliary AE hyperbilirubenemia, subject 4001 (Cohort 4): not related | Relationship of hepatobiliary AE hyperbilirubinemia, subject 4014 (Cohort 4): not related | Relationship of hepatobiliary AE hyperbilirubinemia, subject 4041 (Cohort 4): not related | Relationship of hepatobiliary AE jaundice, subject 4002 (Cohort 4): not related | Relationship of hepatobiliary AE worsening hyperbilirubinemia, subject 4004 (Cohort 4): not related | subjects discontinued due to neutropenia (Cohort 4): 0 subject(s) | ALT (Screening) >3 × ULN-5 × ULN, subjects (Cohort 4, 200 mg BIW): 2 (6.7%) | ALT (Screening) >5 × ULN-10 × ULN, subjects (Cohort 4, 200 mg BIW): 2 (6.7%) | ALT (Screening) >10 × ULN-20 × ULN, subjects (Cohort 4, 200 mg BIW): 0 | ALT (Screening) >20 × ULN, subjects (Cohort 4, 200 mg BIW): 0 | ALT (any time during therapy) >3 × ULN-5 × ULN, subjects (Cohort 4, 200 mg BIW): 4 (13.8%) | ALT (any time during therapy) >5 × ULN-10 × ULN, subjects (Cohort 4, 200 mg BIW): 6 (20.7%) | ALT (any time during therapy) >10 × ULN-20 × ULN, subjects (Cohort 4, 200 mg BIW): 2 (6.9%) | ALT (any time during therapy) >20 × ULN, subjects (Cohort 4, 200 mg BIW): 0 | AST (Screening) >3 × ULN-5 × ULN, subjects (Cohort 4, 200 mg BIW): 1 (3.3%) | AST (Screening) >5 × ULN-10 × ULN, subjects (Cohort 4, 200 mg BIW): 0 | AST (Screening) >10 × ULN-20 × ULN, subjects (Cohort 4, 200 mg BIW): 0 | AST (Screening) >20 × ULN, subjects (Cohort 4, 200 mg BIW): 0 | AST (any time during therapy) >3 × ULN-5 × ULN, subjects (Cohort 4, 200 mg BIW): 6 (20.7%) | AST (any time during therapy) >5 × ULN-10 × ULN, subjects (Cohort 4, 200 mg BIW): 0 | AST (any time during therapy) >10 × ULN-20 × ULN, subjects (Cohort 4, 200 mg BIW): 0 | AST (any time during therapy) >20 × ULN, subjects (Cohort 4, 200 mg BIW): 0 | Alkaline Phosphatase (Screening) >2.5-5.0 × ULN, subjects (Cohort 4, 200 mg BIW): 0 | Alkaline Phosphatase (Screening) >5.0-20.0 × ULN, subjects (Cohort 4, 200 mg BIW): 0 | Alkaline Phosphatase (Screening) >20.0 × ULN, subjects (Cohort 4, 200 mg BIW): 0 | Alkaline Phosphatase (Screening) >ULN-[…] ULN, subjects (Cohort 4, 200 mg BIW): 7 (23.3%) | Alkaline Phosphatase (any time during therapy) >2.5-5.0 × ULN, subjects (Cohort 4, 200 mg BIW): 0 | Alkaline Phosphatase (any time during therapy) >5.0-20.0 × ULN, subjects (Cohort 4, 200 mg BIW): 0 | Alkaline Phosphatase (any time during therapy) >20.0 × ULN, subjects (Cohort 4, 200 mg BIW): 0 | Alkaline Phosphatase (any time during therapy) >ULN-[…] ULN, subjects (Cohort 4, 200 mg BIW): 11 (37.9%) | GI AE Leading to Study Drug Discontinuation: Abdominal pain, subjects (Cohort 4, 200 mg BIW): 1 (3.3%) | GI AE Leading to Study Drug Discontinuation: Diarrhoea, subjects (Cohort 4, 200 mg BIW): 7 (23.3%) | GI AE Leading to Study Drug Discontinuation: Dyspepsia, subjects (Cohort 4, 200 mg BIW): 0 | GI AE Leading to Study Drug Discontinuation: Nausea, subjects (Cohort 4, 200 mg BIW): 1 (3.3%) | GI AE Leading to Study Drug Discontinuation: Vomiting, subjects (Cohort 4, 200 mg BIW): 0 | GI AEs Leading to Study Drug Discontinuation: Total subjects discontinued (Cohort 4, 200 mg BIW): 9 (30.0%) | Gastrointestinal AE Abdominal discomfort, subjects (Cohort 4, 200 mg BIW): 0 | Gastrointestinal AE Abdominal distention, subjects (Cohort 4, 200 mg BIW): 1 (3.3%) | Gastrointestinal AE Abdominal pain upper, subjects (Cohort 4, 200 mg BIW): 3 (10.0%) | Gastrointestinal AE Abdominal pain, subjects (Cohort 4, 200 mg BIW): 11 (36.7%) | Gastrointestinal AE Constipation, subjects (Cohort 4, 200 mg BIW): 3 (10.0%) | Gastrointestinal AE Diarrhoea, subjects (Cohort 4, 200 mg BIW): 21 (70.0%) | Gastrointestinal AE Diverticulum intestinal haemorragic, subjects (Cohort 4, 200 mg BIW): 0 | Gastrointestinal AE Dyspepsia, subjects (Cohort 4, 200 mg BIW): 1 (3.3%) | Gastrointestinal AE Dysphagia, subjects (Cohort 4, 200 mg BIW): 0 | Gastrointestinal AE Epigastric discomfort, subjects (Cohort 4, 200 mg BIW): 0 | Gastrointestinal AE Flatulence, subjects (Cohort 4, 200 mg BIW): 3 (10.0%) | Gastrointestinal AE GERD, subjects (Cohort 4, 200 mg BIW): 2 (6.7%) | Gastrointestinal AE Gastritis, subjects (Cohort 4, 200 mg BIW): 0 | Gastrointestinal AE Haematochezia, subjects (Cohort 4, 200 mg BIW): 0 | Gastrointestinal AE Haemorroids, subjects (Cohort 4, 200 mg BIW): 2 (6.7%) | Gastrointestinal AE Large intestinal ulcer, subjects (Cohort 4, 200 mg BIW): 0 | Gastrointestinal AE Nausea, subjects (Cohort 4, 200 mg BIW): 11 (36.7%) | Gastrointestinal AE Odynophagia, subjects (Cohort 4, 200 mg BIW): 1 (3.3%) | Gastrointestinal AE Oesophagitis, subjects (Cohort 4, 200 mg BIW): 0 | Gastrointestinal AE Retching, subjects (Cohort 4, 200 mg BIW): 0 | Gastrointestinal AE Vomiting, subjects (Cohort 4, 200 mg BIW): 8 (26.7%) | Hepatobiliary clinical AE Cholelithiasis, subjects (Cohort 4, 200 mg BIW): 0 | Hepatobiliary clinical AE Hepatomegaly, subjects (Cohort 4, 200 mg BIW): 1 (3.3%) | Hepatobiliary clinical AE Hyperbilirubinaemia, subjects (Cohort 4, 200 mg BIW): 5 (16.7%) | Hepatobiliary clinical AE Jaundice, subjects (Cohort 4, 200 mg BIW): 1 (3.3%) | Hepatobiliary clinical AE Liver injury, subjects (Cohort 4, 200 mg BIW): 1 (3.3%) | Intensity of Gastrointestinal AEs, Grade 1, subjects (Cohort 4, 200 mg BIW): 3 (10.0%) | Intensity of Gastrointestinal AEs, Grade 2, subjects (Cohort 4, 200 mg BIW): 13 (43.3%) | Intensity of Gastrointestinal AEs, Grade 3, subjects (Cohort 4, 200 mg BIW): 10 (33.3%) | Intensity of Gastrointestinal AEs, Grade 4, subjects (Cohort 4, 200 mg BIW): 0 | Intensity of Gastrointestinal AEs, Grade 5, subjects (Cohort 4, 200 mg BIW): 1 (3.3%) | Serum ALT level, Median fold increase from Baseline at Follow-up Week 1 (Cohort 4, 200 mg BIW): 1.87 fold | Serum ALT level, Median fold increase from Baseline at Follow-up Week 4 (Cohort 4, 200 mg BIW): 1.34 fold | Serum ALT level, Peak Median fold increase from Baseline (Cohort 4, 200 mg BIW): 3.55 fold | Subjects completed study (Cohort 4, 200 mg BIW): 6 (20.0%) n (%) | Total Bilirubin (Screening) >1-[…] ULN, subjects (Cohort 4, 200 mg BIW): 1 (3.3%) | Total Bilirubin (Screening) >1.5-3 × ULN, subjects (Cohort 4, 200 mg BIW): 0 | Total Bilirubin (Screening) >3-10 × ULN, subjects (Cohort 4, 200 mg BIW): 0 | Total Bilirubin (Screening) >10 × ULN, subjects (Cohort 4, 200 mg BIW): 0 | Total Bilirubin (any time during therapy) >1-[…] ULN, subjects (Cohort 4, 200 mg BIW): 3 (10.3%) | Total Bilirubin (any time during therapy) >1.5-3 × ULN, subjects (Cohort 4, 200 mg BIW): 1 (3.4%) | Total Bilirubin (any time during therapy) >3-10 × ULN, subjects (Cohort 4, 200 mg BIW): 1 (3.4%) | Total Bilirubin (any time during therapy) >10 × ULN, subjects (Cohort 4, 200 mg BIW): 0 | incidence of diarrhea (Cohort 4, 200 mg BIW): 70% | Abdominal pain leading to study drug withdrawal (Cohort 4, 200 mg BIW, N = 30): 1 (3.3%) | All AEs leading to withdrawal (Cohort 4, 200 mg BIW, N = 30): 18 (60.0%) | Diarrhoea leading to study drug withdrawal (Cohort 4, 200 mg BIW, N = 30): 7 (23.3%)

— patent publication US20140303092A1 (CHIMERIX, INC., priority 2011, published 2014)
